# Assay results: article PMC10060569 (Frontiers in Pharmacology, 2023)
# pIC50: −log10 of the molar value. Read-outs that look alike come from different tables or passages of the source.
# Key:
# G189A/S15V-hP2X3R = assay: TEVC of ATP-induced currents, G189A/S15V-hP2X3R mutant in X. laevis oocytes; assay type: cell-based, human; conditions: ± SEM
# Procedure: Ion currents mediated by P2X receptors were evoked by the indicated concentration of ATP or α,β-meATP and were recorded 1 or 2 days after cRNA injection at ambient temperature at a holding potential of −60 mV by two-electrode voltage clamp (TEVC) as previously described ([Hausmann et al., 2006]). Calcium-free ORi^− solution (90 mM NaCl, 1 mM KCl, 2 mM MgCl2, 10 mM HEPES, pH 7.4) was used to avoid bias due to calcium-activated chloride channels (CaCC) endogenously expressed in X. laevis oocytes ([Miledi, 1982]; [Methfessel et al., 1986]). […]
# In the case of fast-desensitizing P2XR subtypes (P2X1R and P2X3R), ATP is applied five times in repetition, and the ATP-induced current amplitude in the presence (after pre-incubation) of the antagonist (fourth application) is compared to the arithmetic mean of flanking control ATP-induced current amplitudes in the absence of the antagonist (third and fifth ATP application). […] The correction factor was calculated as the ratio of the fourth ATP-induced current amplitude to the third amplitude (Eq. 3) when the experiment was performed in the absence of the antagonist. […] Since the magnitude of the run-down varies from day to day and batch to batch of oocytes, the correction factor was determined on each day of the experiments and was calculated as the arithmetic mean of several recordings (at least 3–5 and on average 5) on each day.
# hP2X2/3R = biological target: T1, hP2X2/3R (Homo sapiens, UniProt P56373+Q9UBL9); assay: TEVC of α,β-meATP-induced currents, heteromeric hP2X2/3R in X. laevis oocytes (steady-state protocol); assay type: cell-based
# T1 construct: expressed in transfected cells; host or cells: Xenopus laevis oocytes (co-injection of cRNAs)
# T1 sequence (Q9UBL9 1-471): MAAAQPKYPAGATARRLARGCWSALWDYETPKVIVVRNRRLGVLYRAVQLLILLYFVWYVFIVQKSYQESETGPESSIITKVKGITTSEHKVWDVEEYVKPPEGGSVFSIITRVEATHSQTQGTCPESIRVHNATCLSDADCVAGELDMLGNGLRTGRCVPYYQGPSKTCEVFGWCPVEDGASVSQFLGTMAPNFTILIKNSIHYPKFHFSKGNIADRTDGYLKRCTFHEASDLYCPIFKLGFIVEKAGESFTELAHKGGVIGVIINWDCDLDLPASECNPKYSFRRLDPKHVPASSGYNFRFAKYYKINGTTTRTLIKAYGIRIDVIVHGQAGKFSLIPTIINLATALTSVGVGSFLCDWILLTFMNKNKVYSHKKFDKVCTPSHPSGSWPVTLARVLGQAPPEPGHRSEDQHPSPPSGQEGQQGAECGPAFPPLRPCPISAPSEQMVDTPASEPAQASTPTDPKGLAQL
# T1 sequence (P56373 1-397): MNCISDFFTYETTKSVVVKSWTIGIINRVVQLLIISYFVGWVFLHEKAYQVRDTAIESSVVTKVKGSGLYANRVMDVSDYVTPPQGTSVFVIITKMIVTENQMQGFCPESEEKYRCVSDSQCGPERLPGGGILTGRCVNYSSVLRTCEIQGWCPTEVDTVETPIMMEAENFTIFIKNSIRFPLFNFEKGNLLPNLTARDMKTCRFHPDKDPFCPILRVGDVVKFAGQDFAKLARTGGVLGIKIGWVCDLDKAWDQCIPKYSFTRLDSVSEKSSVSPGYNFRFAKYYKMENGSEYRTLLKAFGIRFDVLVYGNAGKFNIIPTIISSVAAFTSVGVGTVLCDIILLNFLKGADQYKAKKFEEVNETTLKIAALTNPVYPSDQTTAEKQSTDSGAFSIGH
# Text: Oocyte expression plasmids encoding the wild-type (wt) and N-terminally His-tagged (His-) fusion constructs of the hP2X2R, hP2X3R, hP2X4R, and hP2X7R, and the mutant His-^20RMVL^23KVIV^23S^26N-hP2X1R, S^15V-rP2X3R, and His-S^15V-hP2X3R were the same as used in previous research ([Hausmann et al., 2006]; [Wolf et al., 2011]; [Hausmann et al., 2014]; [Obrecht et al., 2019]). In most cases, the N-terminal His-tagged variants of P2XRs were used here and in the previous studies to allow biochemical analyses on affinity-purified proteins using the same constructs. Although this was not required for the present study, it allows for better comparability with our previous studies. Capped cRNAs of different P2XRs were already available in the research group or were synthesized as previously described ([Schmalzing et al., 1991]; [Stolz et al., 2015]). cRNA was injected into collagenase-defolliculated X. laevis oocytes in aliquots of 41 nl or 23 nl (see Supplementary Table S1 for the amount of cRNA used for expression of the indicated P2XR) using a Nanoliter 2000 injector (World Precision Instruments, Sarasota, United States of America) as described previously ([Hausmann et al., 2014]; [Stolz et al., 2015]; [Obrecht et al., 2019]). To express the heteromeric hP2X2/3 receptor, cRNAs encoding His-hP2X2R and wt-hP2X3R were coinjected at a ratio (w/w) of 1:6. Oocytes were stored at 19°C in an oocyte ringer solution (ORi^+) containing 90 mM NaCl, 1 mM KCl, 1 mM CaCl2, 1 mM MgCl2, and 10 mM HEPES (Carl Roth, Karlsruhe, Germany) adjusted to pH 7.4 with NaOH and supplemented with 50 μg/ml gentamicin (AppliChem, Darmstadt, Germany). The procedures followed for the maintenance of and the surgical treatment for X. laevis adults were approved by the governmental animal care and use committee of the State Agency for Nature, Environment, and Consumer Protection (LANUV, Recklinghausen, Germany; reference no. 81-02.04.2019. A355), in compliance with Directive 2010/63/EU of the European Parliament and of the Council on the protection of animals used for scientific purpose.
# Ion currents mediated by P2X receptors were evoked by the indicated concentration of ATP or α,β-meATP and were recorded 1 or 2 days after cRNA injection at ambient temperature at a holding potential of −60 mV by two-electrode voltage clamp (TEVC) as previously described ([Hausmann et al., 2006]). Calcium-free ORi^− solution (90 mM NaCl, 1 mM KCl, 2 mM MgCl2, 10 mM HEPES, pH 7.4) was used to avoid bias due to calcium-activated chloride channels (CaCC) endogenously expressed in X. laevis oocytes ([Miledi, 1982]; [Methfessel et al., 1986]). For recordings of wt-hP2X7R, the composition of the ORi^− solution was modified according to protocols described previously and contained 100 mM NaCl, 2.5 mM KCl, 1 mM MgCl2, 5 mM HEPES, pH 7.4 ([Klapperstück et al., 2000]). The oocytes were continuously superfused with ORi^− by gravity flow (5–10 ml/min). The agonists ATP or α,β-meATP and the investigated NSAIDs were diluted in ORi^− on the day of the recording. The following agonist concentrations were used for the different P2X subtypes: 1 μM ATP (hP2X1R mutant, hP2X3R, rP2X3R, S^15V-hP2X3R, and S^15V-rP2X3R); 10 μM ATP (hP2X2R and hP2X4R); 300 μM free ATP^4- (hP2X7R); and 1 μM α,β-meATP (hP2X2/3R). […]
smiles,measurement,setting,value
"O=C(O)Cc1ccccc1Nc1c(Cl)cccc1Cl [Diclofenac, diclofenac]",% inhibition of 10 µM ATP-induced currents by 10 µM diclofenac,G189A/S15V-hP2X3R,6.4% ± 3.0%
same,pIC50,"hP2X2/3R; 1 µM α,β-meATP, steady-state protocol, X. laevis oocytes",4.12
same,reduction of current amplitude in the presence of 3–10 µM diclofenac,hP2X2/3R; 3–10 µM diclofenac,20%–30%
same,inhibition at 30 µM,"hP2X2/3R; read-out: % inhibition by 30 µM diclofenac of 1 µM α,β-meATP-induced current",44.8%
same,inhibition at 30 µM,"hP2X2/3R; read-out: % inhibition by 30 µM diclofenac of 30 µM α,β-meATP-induced current",25.1%
same,inhibition at 1000 µM,hP2X2/3R; read-out: Max. inhibition at 1 mM,97%
